Assay results taken from US11524966B1 (Valo Early Discovery, Inc., priority 2017, dated 2022).

Biological target: T1, USP25 (USP25-His6, Boston Biochem E-546) (Homo sapiens, UniProt Q9UHP3)
T1 construct: His6; purchased Boston Biochem E-546
T1 sequence (Q9UHP3 1-1055): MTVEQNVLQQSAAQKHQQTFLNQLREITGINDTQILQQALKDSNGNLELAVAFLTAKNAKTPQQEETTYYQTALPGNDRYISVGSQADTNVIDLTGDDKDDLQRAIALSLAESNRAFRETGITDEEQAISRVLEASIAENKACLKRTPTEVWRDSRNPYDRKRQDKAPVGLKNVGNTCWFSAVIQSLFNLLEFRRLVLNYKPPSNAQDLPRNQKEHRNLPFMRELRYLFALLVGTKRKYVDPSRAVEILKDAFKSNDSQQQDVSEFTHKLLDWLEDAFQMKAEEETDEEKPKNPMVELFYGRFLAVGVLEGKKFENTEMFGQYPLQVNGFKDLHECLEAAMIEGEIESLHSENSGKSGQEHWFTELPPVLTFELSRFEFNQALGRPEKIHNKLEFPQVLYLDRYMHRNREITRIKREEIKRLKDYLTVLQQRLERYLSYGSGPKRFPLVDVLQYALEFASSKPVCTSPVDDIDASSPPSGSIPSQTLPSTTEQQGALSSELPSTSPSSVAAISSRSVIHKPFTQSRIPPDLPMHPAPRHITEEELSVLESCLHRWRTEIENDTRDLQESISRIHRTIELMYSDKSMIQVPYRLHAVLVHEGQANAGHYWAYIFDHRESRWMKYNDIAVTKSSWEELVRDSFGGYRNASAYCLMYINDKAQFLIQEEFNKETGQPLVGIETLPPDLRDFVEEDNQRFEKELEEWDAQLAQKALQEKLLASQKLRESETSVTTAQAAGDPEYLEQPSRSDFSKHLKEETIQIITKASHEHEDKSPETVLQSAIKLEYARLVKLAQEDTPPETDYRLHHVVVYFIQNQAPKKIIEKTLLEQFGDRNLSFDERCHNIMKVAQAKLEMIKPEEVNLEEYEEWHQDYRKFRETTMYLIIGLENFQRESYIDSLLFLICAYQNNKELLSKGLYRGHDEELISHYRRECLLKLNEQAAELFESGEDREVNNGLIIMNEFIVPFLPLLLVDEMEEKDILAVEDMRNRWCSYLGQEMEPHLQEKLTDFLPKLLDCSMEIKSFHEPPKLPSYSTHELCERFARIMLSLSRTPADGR
Assay: Ubiquitin-Rhodamine 110 Assay for USP25 Activity, Example A-2
Format: biochemical
Conditions: Ubiquitin-Rhodamine 110 assay, Example A-2; read-out: USP25 A-2 IC50 range
How it was run: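 Cleavage of ubiquitin-rhodamine 110 (25 nM, well below Km) by His-tagged USP25 at 75 pM is measured fluorimetrically after 45 min at room temperature and acid quench. Inhibitors are preincubated with enzyme for 30 minutes. IC50 values come from four-parameter logistic curve fitting.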

Work on Cc1ccc2c(N)c(C(=O)N[C@H]3COc4c(C#N)c(N5CC6CCC(C5)N6)cc(F)c4C3)sc2n1 [Example 95, 3-amino-N-[(3R)-8-cyano-7-{3,8-diazabicyclo[3.2.1]octan-3-yl}-5-fluoro-3,4-dihydro-2H-1-benzopyran-3-yl]-6-methylthieno[2,3-b]pyridine-2-carboxamide] yielded an IC50 of 200 to 2000 nM.
CCn1ccc2cc(C(=O)N[C@@H]3CCc4cc(N5C[C@H](OC)[C@@H](N)C5)cc(F)c4C3)nnc21 [Example 139, N-[(2R)-6-[(3S,4S)-3-amino-4-methoxypyrrolidin-1-yl]-8-fluoro-1,2,3,4-tetrahydronaphthalen-2-yl]-7-ethyl-7H-pyrrolo[2,3-c]pyridazine-3-carboxamide] was tested, and the IC50 was > 2000 nM.
CO[C@H]1CN(c2cc(F)c3c(c2)OC[C@H](NC(=O)c2sc4nc(C)ccc4c2N)C3)C[C@H]1N [Example 146] was tested, and the IC50 was 200 to 2000 nM.
Cc1ccc2c(N)c(C(=O)N[C@H]3CCc4c(ccc(N5CC6CNCC(C5)O6)c4F)C3)sc2n1 [Example 99, 3-amino-N-[(2S)-5-fluoro-6-{9-oxa-3,7-diazabicyclo[3.3.1]nonan-3-yl}-1,2,3,4-tetrahydronaphthalen-2-yl]-6-methylthieno[2,3-b]pyridine-2-carboxamide] was tested, and the IC50 was 1 to 50 nM.
Work on CO[C@H]1CN(c2ccc3c(c2)OC[C@H](NC(=O)c2sc4nc(C)sc4c2N)C3)C[C@H]1N [Example 150] yielded an IC50 of 200 to 2000 nM.
In the case of CO[C@@H]1CN(c2ccc3c(c2)CC[C@H](NC(=O)c2sc4nc(C)ccc4c2N)C3)C[C@@H]1N [Example 143, 3-amino-N-[(2S)-6-[(3S,4R)-3-amino-4-methoxypyrrolidin-1-yl]-1,2,3,4-tetrahydronaphthalen-2-yl]-6-methylthieno[2,3-b]pyridine-2-carboxamide], the IC50 is reported as 200 to 2000 nM.
With Cc1ccc2c(N)c(C(=O)N[C@@H]3CCc4c(ccc(N5CC6CNCC(C5)O6)c4F)C3)sc2n1 [Example 100, 3-amino-N-[(2R)-5-fluoro-6-{9-oxa-3,7-diazabicyclo[3.3.1]nonan-3-yl}-1,2,3,4-tetrahydronaphthalen-2-yl]-6-methylthieno[2,3-b]pyridine-2-carboxamide] the IC50 was > 2000 nM.
For CCO[C@H]1CN(c2ccc3c(n2)CC[C@H](NC(=O)c2sc4nc(C)ccc4c2N)C3)C[C@@H]1N [Example 142, 3-amino-N-[(6S)-2-[(3S,4S)-3-amino-4-ethoxypyrrolidin-1-yl]-5,6,7,8-tetrahydroquinolin-6-yl]-6-methylthieno[2,3-b]pyridine-2-carboxamide], the IC50 was > 2000 nM.
CO[C@H]1CCN(c2ccc3c(c2)OC[C@H](NC(=O)c2sc4nc(C)ccc4c2N)C3)C[C@@H]1N [Example 119, 3-amino-N-[(3R)-7-[(3S,4S)-3-amino-4-methoxypiperidin-1-yl}-3,4-dihydro-2H-1-benzopyran-3-yl]-6-methylthieno[2,3-b]pyridine-2-carboxamide] was tested, and the IC50 was 200 to 2000 nM.
For Cc1cnc2c(N)c(C(=O)N[C@H]3COc4cc(N5CC6CCC(C5)N6)c(F)c(F)c4C3)sc2n1 [Example 97, 7-amino-N-[(3R)-7-{3,8-diazabicyclo[3.2.1]octan-3-yl]-5,6-difluoro-3,4-dihydro-2H-1-benzopyran-3-yl]-3-methylthieno[2,3-b]pyrazine-6-carboxamide], the IC50 was 1 to 50 nM.
Molecule Cc1ccc2c(N)c(C(=O)N[C@H]3COc4cc(N5CC[C@H]6CNC[C@H]65)ccc4C3)sc2n1 [Example 166, N-[(3R)-7-[(3aS,6aS)-octahydropyrrolo[2,3-c]pyrrol-1-yl]-3,4-dihydro-2H-1-benzopyran-3-yl]-3-amino-6-methylthieno[2,3-b]pyridine-2-carboxamide] has an IC50 of 50 to 200 nM.
Cc1ccc2c(N)c(C(=O)N[C@H]3COc4cc(N5C[C@@H]6C[C@H]5CN6)c(F)c(F)c4C3)sc2n1 [Example 112, 3-amino-N-[(3R)-7-[(1S,4S)-2,5-diazabicyclo[2.2.1]heptan-2-yl]-5,6-difluoro-3,4-dihydro-2H-1-benzopyran-3-yl]-6-methylthieno[2,3-b]pyridine-2-carboxamide] was tested, and the IC50 was 200 to 2000 nM.
For CO[C@H]1CN(c2ccc3c(c2)OC[C@H](NC(=O)c2sc4nc(C)ccc4c2N)C3)CC[C@@H]1N [Example 128, 3-amino-N-[(3R)-7-[(3S,4S)-4-amino-3-methoxypiperidin-1-yl]-3,4-dihydro-2H-1-benzopyran-3-yl]-6-methylthieno[2,3-b]pyridine-2-carboxamide], the IC50 was 200 to 2000 nM.
For Cc1ccc2c(N)c(C(=O)N[C@H]3COc4c(F)c(N5C[C@@H]6C[C@H]5CN6)cc(F)c4C3)sc2n1 [Example 110, 3-amino-N-[(3R)-7-[(1S,4S)-2,5-diazabicyclo[2.2.1]heptan-2-yl]-5,8-difluoro-3,4-dihydro-2H-1-benzopyran-3-yl]-6-methylthieno[2,3-b]pyridine-2-carboxamide], the IC50 was 50 to 200 nM.
In the case of COC[C@H]1CN(c2ccc3c(c2)OC[C@H](NC(=O)c2sc4nc(C)ccc4c2N)C3)C[C@H]1N [Example 162, 3-amino-N-[(3R)-7-[(3S,4S)-3-amino-4-(methoxymethyl)pyrrolidin-1-yl]-3,4-dihydro-2H-1-benzopyran-3-yl]-6-methylthieno[2,3-b]pyridine-2-carboxamide], the IC50 is reported as 50 to 200 nM.
Work on CO[C@@H]1CN(c2cc(F)c3c(c2)OC[C@H](NC(=O)c2sc4nc(C)ccc4c2N)C3)C[C@@H]1N [Example 145, 3-amino-N-[(3R)-7-[(3S,4R)-3-amino-4-methoxypyrrolidin-1-yl]-5-fluoro-3,4-dihydro-2H-1-benzopyran-3-yl]-6-methylthieno[2,3-b]pyridine-2-carboxamide] yielded an IC50 of 200 to 2000 nM.
In the case of CO[C@H]1CN(c2ccc3c(c2)OC[C@H](NC(=O)c2sc4nc(C)cnc4c2N)C3)C[C@@H]1N [Example 117, 7-amino-N-[(3R)-7-[(3S,4S)-3-amino-4-methoxypyrrolidin-1-yl]-3,4-dihydro-2H-1-benzopyran-3-yl]-3-methylthieno[2,3-b]pyrazine-6-carboxamide], the IC50 is reported as 200 to 2000 nM.
In the case of Cc1ccc2c(N)c(C(=O)N[C@H]3COc4c(ccc(N5CC6CCC(C5)N6)c4F)C3)sc2n1 [Example 103, 3-amino-N-[(3R)-7-{3,8-diazabicyclo[3.2.1]octan-3-yl}-8-fluoro-3,4-dihydro-2H-1-benzopyran-3-yl]-6-methylthieno[2,3-b]pyridine-2-carboxamide], the IC50 is reported as 50 to 200 nM.
With CO[C@H]1CN(c2cc(F)c3c(c2)CC[C@@H](NC(=O)c2sc4nc(C)ccc4c2N)C3)C[C@@H]1N [Example 137, 3-amino-N-[(2R)-6-[(3S,4S)-3-amino-4-methoxypyrrolidin-1-yl]-8-fluoro-1,2,3,4-tetrahydronaphthalen-2-yl]-6-methylthieno[2,3-b]pyridine-2-carboxamide] the IC50 was > 2000 nM.
Work on Cc1ccc2c(N)c(C(=O)N[C@H]3COc4cc(N5CC6CNCC(C5)O6)c(F)cc4C3)sc2n1 [Example 106, 3-amino-N-[(3R)-6-fluoro-7-{9-oxa-3,7-diazabicyclo[3.3.1]nonan-3-yl}-3,4-dihydro-2H-1-benzopyran-3-yl]-6-methylthieno[2,3-b]pyridine-2-carboxamide] yielded an IC50 of 50 to 200 nM.
With Cc1ccc2c(N)c(C(=O)N[C@H]3COc4cc(N5CC6CCC(C5)N6)cc(F)c4C3)oc2n1 [Example 170, 3-amino-N-[(3R)-7-{3,8-diazabicyclo[3.2.1]octan-3-yl}-5-fluoro-3,4-dihydro-2H-1-benzopyran-3-yl]-6-methylfuro[2,3-b]pyridine-2-carboxamide] the IC50 was > 2000 nM.
Cc1nc2sc(C(=O)N[C@H]3COc4c(F)c(N5CC6CCC(C5)N6)cc(F)c4C3)c(N)c2s1 [Example 98, 6-amino-N-[(3R)-7-{3,8-diazabicyclo[3.2.1]octan-3-yl}-5,8-difluoro-3,4-dihydro-2H-1-benzopyran-3-yl]-2-methylthieno[2,3-d][1, 3]thiazole-5-carboxamide] gave an IC50 of 50 to 200 nM.
Cc1ccc2c(N)c(C(=O)N[C@H]3COc4cc(N5C[C@@H](N)[C@@H](C(F)F)C5)ccc4C3)sc2n1 [Example 168, 3-amino-N-[(3R)-7-[(3S,4S)-3-amino-4-(difluoromethyl)pyrrolidin-1-yl]-3,4-dihydro-2H-1-benzopyran-3-yl]-6-methylthieno[2,3-b]pyridine-2-carboxamide] was tested, and the IC50 was 200 to 2000 nM.
In the case of CO[C@H]1CN(c2cc3c(cc2C#N)C[C@@H](NC(=O)c2sc4nc(C)cnc4c2N)CO3)C[C@@H]1N [Example 176, 7-amino-N-[(3R)-7-[(3S,4S)-3-amino-4-methoxypyrrolidin-1-yl]-6-cyano-3,4-dihydro-2H-1-benzopyran-3-yl]-3-methylthieno[2,3-b]pyrazine-6-carboxamide], the IC50 is reported as 50 to 200 nM.
